Earlier results in US8609359B2, “Methods for determining the concentration of gamma-hydroxy butyric acid (GHB) in a sample” (Bühlmann Laboratories AG, priority 2009, dated 2013).

Experiments:
[1] = when consumed with food
[2] = in 1 ml of water
[3] = effects can resolve quite suddenly
GABAB receptor = GABAB receptor (Homo sapiens, UniProt Q9UBS5)
GHB receptor = conditions: for GHB-appropriate responding: animals

Sequence of GABAB receptor (Q9UBS5 15-961 limits assumed): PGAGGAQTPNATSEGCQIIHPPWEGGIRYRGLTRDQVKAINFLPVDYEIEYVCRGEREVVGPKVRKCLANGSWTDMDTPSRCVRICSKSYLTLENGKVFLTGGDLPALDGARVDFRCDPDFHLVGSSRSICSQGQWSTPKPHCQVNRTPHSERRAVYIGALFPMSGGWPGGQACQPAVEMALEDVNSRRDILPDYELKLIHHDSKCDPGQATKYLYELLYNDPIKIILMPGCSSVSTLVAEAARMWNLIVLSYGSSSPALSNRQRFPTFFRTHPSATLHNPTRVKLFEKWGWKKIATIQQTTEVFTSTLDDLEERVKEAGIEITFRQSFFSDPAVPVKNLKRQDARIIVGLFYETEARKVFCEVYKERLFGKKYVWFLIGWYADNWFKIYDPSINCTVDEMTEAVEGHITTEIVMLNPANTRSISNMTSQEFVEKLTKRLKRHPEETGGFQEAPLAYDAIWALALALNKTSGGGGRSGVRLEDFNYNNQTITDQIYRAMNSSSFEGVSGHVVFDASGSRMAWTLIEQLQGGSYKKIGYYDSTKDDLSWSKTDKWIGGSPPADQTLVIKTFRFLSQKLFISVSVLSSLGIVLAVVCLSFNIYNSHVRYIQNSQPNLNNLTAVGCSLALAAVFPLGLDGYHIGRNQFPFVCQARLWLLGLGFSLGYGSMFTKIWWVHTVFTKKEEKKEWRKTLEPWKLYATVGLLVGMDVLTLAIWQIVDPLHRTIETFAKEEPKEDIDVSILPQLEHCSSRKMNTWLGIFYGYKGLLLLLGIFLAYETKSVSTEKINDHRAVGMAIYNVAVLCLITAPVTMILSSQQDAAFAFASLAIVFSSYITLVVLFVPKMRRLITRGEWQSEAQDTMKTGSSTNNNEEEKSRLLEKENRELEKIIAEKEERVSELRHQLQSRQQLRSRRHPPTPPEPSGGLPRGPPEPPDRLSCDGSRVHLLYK
Sequence of GABAB receptor (O75899 42-941 partner): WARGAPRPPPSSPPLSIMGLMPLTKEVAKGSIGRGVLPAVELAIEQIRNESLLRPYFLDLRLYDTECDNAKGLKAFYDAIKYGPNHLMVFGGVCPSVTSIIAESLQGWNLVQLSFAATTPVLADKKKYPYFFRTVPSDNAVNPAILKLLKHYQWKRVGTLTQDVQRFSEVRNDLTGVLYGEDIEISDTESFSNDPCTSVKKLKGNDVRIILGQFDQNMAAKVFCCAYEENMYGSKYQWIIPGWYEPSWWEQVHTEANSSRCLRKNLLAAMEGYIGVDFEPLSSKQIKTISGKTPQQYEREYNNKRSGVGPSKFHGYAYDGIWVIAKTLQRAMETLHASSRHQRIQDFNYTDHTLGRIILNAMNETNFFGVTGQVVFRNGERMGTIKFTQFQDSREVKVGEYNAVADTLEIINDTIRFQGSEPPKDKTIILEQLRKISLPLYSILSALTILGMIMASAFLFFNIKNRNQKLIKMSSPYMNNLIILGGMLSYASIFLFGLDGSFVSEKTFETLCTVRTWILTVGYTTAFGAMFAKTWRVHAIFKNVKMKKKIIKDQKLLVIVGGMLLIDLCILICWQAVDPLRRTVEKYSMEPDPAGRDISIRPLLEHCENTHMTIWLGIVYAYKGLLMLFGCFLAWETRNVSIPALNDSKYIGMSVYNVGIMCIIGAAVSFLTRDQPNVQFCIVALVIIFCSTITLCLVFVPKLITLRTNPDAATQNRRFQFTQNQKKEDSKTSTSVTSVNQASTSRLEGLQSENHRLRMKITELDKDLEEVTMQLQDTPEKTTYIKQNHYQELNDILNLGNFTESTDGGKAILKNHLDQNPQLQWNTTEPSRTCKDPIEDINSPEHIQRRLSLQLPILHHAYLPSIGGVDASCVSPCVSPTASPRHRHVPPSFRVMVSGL

Q: Which bioavailability [1] does the source give for `O=C([O-])CCCO.[Na+]` [sodium GHB] here?
A: considerably reduced

Q: And the “amount of sodium GHB that can be dissolved” value [2]?
A: More than 1 g

Q: For `O=C(O)CCCO` [GHB, 4-hydroxybutanoic acid], which “duration of the effects” value [3] is on record?
A: about four

Q: What about the “affinity for GABAB receptor” value (GABAB receptor) of the same molecule?
A: relatively weak affinity

Q: What does the source list for `O=C(O)CCC(O)Cc1ccc(Cl)cc1` (stereo not shown) [4-(p-chlorobenzyl)-GHB]?
A: convulsions in animals (GHB receptor): cause convulsions in animals; GHB-appropriate responding (GHB receptor): do not produce GHB-appropriate responding

Q: With `O=C(O)/C=C/CO` [trans-4-hydroxycrotonic acid] as the molecule, how does the GHB-appropriate responding (GHB receptor) read?
A: do not produce GHB-appropriate responding
